The values below come from PubChem BioAssay (NCI).

SMILES strings stand for the structures.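 Each compound was tested at five concentrations against cells in 96-well plates for 48 hours. GI50: concentration for 50% inhibition of growth. TGI is the concentration that stops growth completely.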

Test systems include A549 NSCLC; HOP-92 NSCLC; KM12 colon; OVCAR-3 ovarian; PC-3 prostate; SF-295 CNS; SNB-75 CNS; SW-620 colon; IGROV1 ovarian; SK-MEL-28 melanoma.
Common to all, as to test: DTP human tumour cell line panel, 48 h

As a reminder, the GI50 is the concentration that inhibits growth by half. A word on the TGI: it is the concentration at which net growth stops. Higher therefore signals less potent growth arrest. On to `Cc1ccc(N(CC(=O)Nc2ccc(S(=O)(=O)N3CCC(N4CCCC4)CC3)cc2)S(=O)(=O)c2ccc(Cl)cc2)cc1`, for which the GI50 with A549 NSCLC is 1780 nM; in the assay with HOP-92 NSCLC, 1190 nM; with KM12 colon, 1960 nM; in the assay with OVCAR-3 ovarian it was 1770 nM; in the assay with PC-3 prostate, 1880 nM; in the assay with SF-295 CNS, 1740 nM. Further, the values for the GI50 in the assay with SNB-75 CNS and in the assay with SW-620 colon were 1220 nM and 1660 nM, respectively. For the same molecule, the TGI in the assay with A549 NSCLC turned out to be 3520 nM; with HOP-92 NSCLC, 2710 nM; with KM12 colon, 3900 nM; with OVCAR-3 ovarian it was 3490 nM; in the assay on PC-3 prostate it was 4050 nM; in the assay on SF-295 CNS it was 3420 nM. Moreover, the TGI was determined as 2730 nM in the assay on SNB-75 CNS and 3440 nM in the assay on SW-620 colon.
`O=C1Nc2ccc(Cl)cc2/C1=C\c1c(Cl)nc2sccn12`: the TGI with HOP-92 NSCLC was above 100000 nM; in the assay on IGROV1 ovarian, above 100000 nM; in the assay on KM12 colon, 23400 nM; with OVCAR-3 ovarian, 12400 nM; in the assay with PC-3 prostate, above 100000 nM; with SF-295 CNS, 25300 nM. Also, the TGI with SK-MEL-28 melanoma, with SNB-75 CNS and in the assay with SW-620 colon was above 100000 nM each time.
As for `O=C(Nc1ccc(-n2ccc3c(NC(=O)c4ccccc4)ncnc32)cc1)Nc1cccc(Cl)c1Cl`, the GI50 in the assay with A549 NSCLC was 952 nM; with HOP-92 NSCLC, 847 nM; with IGROV1 ovarian, 1060 nM; in the assay on KM12 colon it was 1150 nM; in the assay with OVCAR-3 ovarian, 1190 nM; in the assay with PC-3 prostate, 582 nM. For the same molecule, the GI50 in the assay with SF-295 CNS was 2220 nM; in the assay on SK-MEL-28 melanoma, 990 nM; with SNB-75 CNS, 777 nM; in the assay with SW-620 colon, 998 nM. For the same molecule, the TGI with A549 NSCLC turned out to be 2220 nM; in the assay with HOP-92 NSCLC it was 2480 nM; in the assay with IGROV1 ovarian, 3390 nM; in the assay with KM12 colon, 6570 nM; in the assay on OVCAR-3 ovarian, 2750 nM; in the assay on PC-3 prostate, 1570 nM. Also, the TGI was above 50000 nM in the assay on SF-295 CNS, 2450 nM in the assay on SK-MEL-28 melanoma, 2710 nM in the assay with SNB-75 CNS and 2360 nM in the assay on SW-620 colon.
As to `CC(=O)NC1=C[C@@H]([C@H]2COC(C)(C)O2)OC1=O`, the TGI in the assay on A549 NSCLC, with HOP-92 NSCLC, in the assay with IGROV1 ovarian, in the assay with KM12 colon, with OVCAR-3 ovarian and with SF-295 CNS was above 100000 nM throughout. Besides, the TGI with SK-MEL-28 melanoma, in the assay with SNB-75 CNS and in the assay on SW-620 colon was above 100000 nM throughout.
